{"source": "patent US3980794A", "about": "“Method for promoting growth of poultry with 3-(5-nitro-2-imidazolyl)pyrazoles” (Eli Lilly and Company, priority 1975, dated 1976)", "key": {"Salmonella choleraesuis": {"test_system": "Salmonella choleraesuis", "experiment": "In vivo activity against Salmonella choleraesuis in pigs (Experiment 14)", "experimental": "The in vivo activity of compound 1 against Salmonella choleraesuis was determined in the following manner.\nTwenty-four healthy feeder pigs were purchased from a local farm and brought to the research facility where they were weighed individually and identified by ear tag. Four groups of six pigs each were formed so that the average pig weight per group was similar.\nTwo groups of pigs were given compound 1 at a level of 50 g./ton in the feed. The remaining two groups of pigs were fed the same basal ration without compound 1. Twenty-four hours after initiation of the compound 1 feed treatment, all four groups were challenged orally using 10 ml. of a broth culture of Salmonella choleraesuis.\nThe pigs were weighed weekly throughout the duration of the experiment and on the 28th day postsalmonella challenge, each surviving pig was killed and the salmonella-caused lesions were recorded. Chart 14, which follows, contains a summary of the results from the trial."}, "[1]": {"test_system": "Pasteurella multocida, bovine strain", "experiment": "Oral activity against Pasteurella multocida, bovine strain, in mice (Experiment 3)", "type": "in vivo, White Swiss mice", "settings": "100 g. per ton of feed; LD50 of control minus LD50 of treated group (log10 dilutions)", "experimental": "White Swiss female mice weighing 15-20 g. each were used in the test. Seven groups of ten mice each were treated at a level of 100 g. of test compound per ton of feed. The animals received the medication in the feed for 2 days prior to challenge and for 7 days post challenge. Similar groups of mice on a ration without the antimicrobial agent were used as controls. Both the treated mice and the control groups of mice were challenged with log10 dilutions ranging from 10^-^2 through 10^-^8 of a 16 to 20-hour culture of Pasteurella multocida, bovine strain, at 0.1 ml. per mouse, administered subcutaneously. […] By subtracting the LD50 of each of the treated groups from that of the control group of mice, there was obtained a figure called the protective index.\nIn the chart, column 1 lists the test compound, identified in the same manner as set forth in Experiment 1; and column 2 lists the protective index."}, "Pseudomonas sp.": {"test_system": "Pseudomonas sp.", "experiment": "In vitro activity against fish bacterial pathogens, tube dilution (Experiment 13)", "type": "cell-based", "settings": "tryptose broth, overnight, 37°C., read-out: minimum inhibitory concentration (MIC), Pseudomonas"}, "Salmonella dublin": {"test_system": "Salmonella dublin", "experiment": "In vivo activity against Salmonella dublin in calves (Experiment 11)", "experimental": "The in vivo activity of compound 1 against Salmonella dublin was determined in the following manner.\nThe calves for the in vivo experiment were purchased from a commercial source. Thirty-two calves were brought to the research facility where they were weighed individually and identified by ear tag. Each calf weighed about 90 pounds. The calves were then randomly divided by weight into eight groups of four calves each. Rectal swabs for Salmonella dublin and Escherichia coli isolation were obtained before treatment was started.\nFour groups of four calves each were treated with the test compound. Treatment was started 24 hours after challenge with Salmonella dublin and continued for six consecutive days. Treatment was accomplished by oral administration twice daily of gelatin capsules of test compound 1. During the treatment, rectal swabs were taken daily of each calf and bacterial isolations for salmonella species were run. At the end of the trial, rectal swabs for E. coli and salmonella species were taken again. The trials were terminated the day following the last treatment, at which time the calves were weighed and sacrificed.\nIn the chart, column 1 records the dose rate/day/calf; column 2, the dose rate in mg./lb.; column 3, the survival ratio observed; and column 4, the occurrence of salmonella isolates obtained at necropsy."}, "Aeromonas liquefaciens": {"test_system": "Aeromonas liquefaciens", "experiment": "In vitro activity against fish bacterial pathogens, tube dilution (Experiment 13)", "settings": "Aeromonas hydrophila, read-out: minimum inhibitory concentration (MIC), Aeromonas liquetaciens"}, "[2]": {"settings": "50 g./ton continuous, total of both replicates"}, "[3]": {"settings": "100 mg./day oral (1.25 mg./lb.)"}, "[4]": {"settings": "100 g./ton in feed, all medicated pigs"}}, "note": "Like-named read-outs stand apart in the source and are kept apart here."}
{"smiles": "Cn1nc(-c2ncc([N+](=O)[O-])n2C)c(C#N)c1N", "note": "[Compound 1, 5-Amino-1-methyl-3-(1-methyl-5-nitro-2-imidazolyl)pyrazole-4-carbonitrile]", "values": [{"measurement": "mortality", "setting": "Salmonella choleraesuis; 50 g./ton continuous", "value": "prevented mortality"}, {"measurement": "Mean Pig Wt.", "setting": "Salmonella choleraesuis; 50 g./ton continuous, Avg., day 0", "value": 30.0, "unit": "Lbs."}, {"measurement": "Mean Pig Wt.", "setting": "Salmonella choleraesuis; 50 g./ton continuous, Avg., day 7", "value": 31.8, "unit": "Lbs."}, {"measurement": "Mean Pig Wt.", "setting": "Salmonella choleraesuis; 50 g./ton continuous, Avg., day 14", "value": 33.5, "unit": "Lbs."}, {"measurement": "Mean Pig Wt.", "setting": "Salmonella choleraesuis; 50 g./ton continuous, Avg., day 21", "value": 39.4, "unit": "Lbs."}, {"measurement": "Mean Pig Wt.", "setting": "Salmonella choleraesuis; 50 g./ton continuous, Avg., day 28", "value": 45.5, "unit": "Lbs."}, {"measurement": "Lesions at Necropsy", "setting": "Salmonella choleraesuis; 50 g./ton continuous, Rep. 1", "value": "2/6"}, {"measurement": "No. Dead/No. in Grp.", "setting": "Salmonella choleraesuis; 50 g./ton continuous, Rep. 1", "value": "0/6"}, {"measurement": "Mean Pig Wt.", "setting": "Salmonella choleraesuis; 50 g./ton continuous, Rep. 1, day 0", "value": 30.2, "unit": "Lbs."}, {"measurement": "Mean Pig Wt.", "setting": "Salmonella choleraesuis; 50 g./ton continuous, Rep. 1, day 7", "value": 32.5, "unit": "Lbs."}, {"measurement": "Mean Pig Wt.", "setting": "Salmonella choleraesuis; 50 g./ton continuous, Rep. 1, day 14", "value": 33.8, "unit": "Lbs."}, {"measurement": "Mean Pig Wt.", "setting": "Salmonella choleraesuis; 50 g./ton continuous, Rep. 1, day 21", "value": 38.8, "unit": "Lbs."}, {"measurement": "Mean Pig Wt.", "setting": "Salmonella choleraesuis; 50 g./ton continuous, Rep. 1, day 28", "value": 44.2, "unit": "Lbs."}, {"measurement": "Lesions at Necropsy", "setting": "Salmonella choleraesuis; 50 g./ton continuous, Rep. 2", "value": "1/6"}, {"measurement": "No. Dead/No. in Grp.", "setting": "Salmonella choleraesuis; 50 g./ton continuous, Rep. 2", "value": "0/6"}, {"measurement": "Mean Pig Wt.", "setting": "Salmonella choleraesuis; 50 g./ton continuous, Rep. 2, day 0", "value": 29.7, "unit": "Lbs."}, {"measurement": "Mean Pig Wt.", "setting": "Salmonella choleraesuis; 50 g./ton continuous, Rep. 2, day 7", "value": 31.0, "unit": "Lbs."}, {"measurement": "Mean Pig Wt.", "setting": "Salmonella choleraesuis; 50 g./ton continuous, Rep. 2, day 14", "value": 33.2, "unit": "Lbs."}, {"measurement": "Mean Pig Wt.", "setting": "Salmonella choleraesuis; 50 g./ton continuous, Rep. 2, day 21", "value": 40.0, "unit": "Lbs."}, {"measurement": "Mean Pig Wt.", "setting": "Salmonella choleraesuis; 50 g./ton continuous, Rep. 2, day 28", "value": 46.7, "unit": "Lbs."}, {"measurement": "improved weight gain over that of infected pigs", "setting": "Salmonella choleraesuis; 50 g./ton continuous, average", "value": 4.3, "unit": "lbs./pig"}, {"measurement": "Lesions at Necropsy", "setting": "Salmonella choleraesuis; [2]", "value": "3/12"}, {"measurement": "No. Dead/No. in Grp.", "setting": "Salmonella choleraesuis; [2]", "value": "0/12"}, {"measurement": "control of Salmonella choleraesuis in swine", "setting": "Salmonella choleraesuis; compound 1 in the feed about 50 g./ton", "value": "effective in the control of Salmonella choleraesuis in swine"}, {"measurement": "Protective Index", "setting": "[1]", "value": "> 5.6"}, {"measurement": "MIC", "setting": "Pseudomonas sp.", "value": 6.25, "unit": "mg/L"}, {"measurement": "Salmonella isolates at necropsy", "setting": "Salmonella dublin; [3]", "value": "1/4"}, {"measurement": "Survival Ratio", "setting": "Salmonella dublin; [3]", "value": "4/4"}, {"measurement": "Salmonella isolates at necropsy", "setting": "Salmonella dublin; 250 mg./day oral (2.5 mg./lb.)", "value": "2/4"}, {"measurement": "Survival Ratio", "setting": "Salmonella dublin; 250 mg./day oral (2.5 mg./lb.)", "value": "4/4"}, {"measurement": "Salmonella isolates at necropsy", "setting": "Salmonella dublin; 500 mg./day oral (5 mg./lb.)", "value": "1/4"}, {"measurement": "Survival Ratio", "setting": "Salmonella dublin; 500 mg./day oral (5 mg./lb.)", "value": "4/4"}, {"measurement": "Salmonella isolates at necropsy", "setting": "Salmonella dublin; 1000 mg./day oral (11 mg./lb.)", "value": "0/4"}, {"measurement": "Survival Ratio", "setting": "Salmonella dublin; 1000 mg./day oral (11 mg./lb.)", "value": "4/4"}, {"measurement": "salmonella isolates from organs of treated calves", "setting": "Salmonella dublin; at termination of the trial", "value": "reduced number of salmonella isolates"}, {"measurement": "control of Salmonella dublin in calves", "setting": "Salmonella dublin; compound 1 oral, about 100 to about 1000 mg./day/calf", "value": "effective in controlling Salmonella dublin in calves"}, {"measurement": "blood and/or mucus in the colon at necropsy", "setting": "Treponema hyodysenteriae; 100 g./ton in feed", "value": "not found in the colon of any pig"}, {"measurement": "Days with Blood and Mucus in Pen", "setting": "Treponema hyodysenteriae; 100 g./ton in feed, Group 1", "value": 0}, {"measurement": "Days with Diarrhea in Pen", "setting": "Treponema hyodysenteriae; 100 g./ton in feed, Group 1", "value": 0}, {"measurement": "Initial Wt. (at time of challenge)", "setting": "Treponema hyodysenteriae; 100 g./ton in feed, Group 1", "value": 35.3}, {"measurement": "Mortality (No. Died)", "setting": "Treponema hyodysenteriae; 100 g./ton in feed, Group 1", "value": 0}, {"measurement": "Avg. Wt. of Pigs, Survivors", "setting": "Treponema hyodysenteriae; 100 g./ton in feed, Group 1, day 7", "value": 43.3}, {"measurement": "Avg. Wt. of Pigs, Survivors", "setting": "Treponema hyodysenteriae; 100 g./ton in feed, Group 1, day 14", "value": 51.0}, {"measurement": "Avg. Wt. of Pigs, Survivors", "setting": "Treponema hyodysenteriae; 100 g./ton in feed, Group 1, day 19", "value": 57.3}, {"measurement": "Avg. Gain (Survivors) From Day Of Challenge", "setting": "Treponema hyodysenteriae; 100 g./ton in feed, Group 1, killed 19 days post-challenge", "value": 22.0, "unit": "lb."}, {"measurement": "Days with Blood and Mucus in Pen", "setting": "Treponema hyodysenteriae; 100 g./ton in feed, Group 2", "value": 0}, {"measurement": "Days with Diarrhea in Pen", "setting": "Treponema hyodysenteriae; 100 g./ton in feed, Group 2", "value": 0}, {"measurement": "Initial Wt. (at time of challenge)", "setting": "Treponema hyodysenteriae; 100 g./ton in feed, Group 2", "value": 35.3}, {"measurement": "Mortality (No. Died)", "setting": "Treponema hyodysenteriae; 100 g./ton in feed, Group 2", "value": 0}, {"measurement": "Avg. Wt. of Pigs, Survivors", "setting": "Treponema hyodysenteriae; 100 g./ton in feed, Group 2, day 7", "value": 42.1}, {"measurement": "Avg. Wt. of Pigs, Survivors", "setting": "Treponema hyodysenteriae; 100 g./ton in feed, Group 2, day 14", "value": 50.0}, {"measurement": "Avg. Wt. of Pigs, Survivors", "setting": "Treponema hyodysenteriae; 100 g./ton in feed, Group 2, day 21", "value": 59.7}, {"measurement": "Avg. Wt. of Pigs, Survivors", "setting": "Treponema hyodysenteriae; 100 g./ton in feed, Group 2, day 28", "value": 71.2}, {"measurement": "Avg. Gain (Survivors) From Day Of Challenge", "setting": "Treponema hyodysenteriae; 100 g./ton in feed, Group 2, killed 28 days post-challenge", "value": 35.9, "unit": "lb."}, {"measurement": "deaths during the trial", "setting": "Treponema hyodysenteriae; [4]", "value": "None of the pigs receiving the test compound died"}, {"measurement": "diarrhea", "setting": "Treponema hyodysenteriae; [4]", "value": "not detected"}, {"measurement": "mucus and blood in feces", "setting": "Treponema hyodysenteriae; 100 g./ton in feed, whole trial", "value": "not observed at any time during the trial"}, {"measurement": "control of induced swine dysentery", "setting": "Treponema hyodysenteriae; 100 g./ton in feed, overall conclusion", "value": "highly effective"}, {"measurement": "control of Treponema hyodysenteriae in swine", "setting": "Treponema hyodysenteriae; compound 1 in the feed about 100 g./ton", "value": "effective in the control of Treponema hyodysenteriae in swine"}, {"measurement": "slight areas of hemorrhage in the colon and/or stomach", "setting": "Treponema hyodysenteriae; pig, in vivo", "value": "seen in most of the pigs"}, {"measurement": "recurrence of swine dysentery", "setting": "Treponema hyodysenteriae; replicate 2, unmedicated ration day 17 until day 28", "value": "not observed"}, {"measurement": "MIC", "setting": "Aeromonas liquefaciens", "value": 3.12, "unit": "mg/L"}]}
{"smiles": "COC=Nc1c(C#N)c(-c2ncc([N+](=O)[O-])n2C)nn1C", "note": "[Compound 6, Methyl N-[4-cyano-1-methyl-3-(1-methyl-5-nitro-2-imidazolyl)pyrazol-5-yl]formimidate]", "values": [{"measurement": "Protective Index", "setting": "[1]", "value": 4.3}]}
{"smiles": "CCCCOC=Nc1c(C#N)c(-c2ncc([N+](=O)[O-])n2C)nn1C", "note": "[Compound 7, Butyl N-[4-Cyano-1-methyl-3-(1-methyl-5-nitro-2-imidazolyl)-pyrazol-5-yl]formimidate]", "values": [{"measurement": "Protective Index", "setting": "[1]", "value": 3.4}]}
